What was measured:
[1] = Tmax in male Sprague-Dawley rat at 2 mg/kg, iv measured up to 24 hrs by LC-MS/MS analysis; type: ADME, organism-based; details: in vivo
[2] = tested on: A549/TR; assay: Synergistic antiproliferative activity against human A549/Taxol cells assessed as combination index at 2.5 uM in presence of 0.5 uM paclitaxel by Chou-Talalay method; type: functional
[3] = tested on: A549/TR; assay: Synergistic antiproliferative activity against human A549/Taxol cells assessed as combination index at 20 uM in presence of 0.025 uM paclitaxel by Chou-Talalay method; type: functional
[4] = tested on: A549/TR; assay: Synergistic antiproliferative activity against human A549/Taxol cells assessed as combination index at 20 uM in presence of 0.1 uM paclitaxel by Chou-Talalay method; type: functional
[5] = Half life in male Sprague-Dawley rat at 2 mg/kg, iv measured up to 24 hrs by LC-MS/MS analysis; type: ADME, organism-based; details: in vivo
[6] = Oral bioavailability in male Sprague-Dawley rat at 10 mg/kg measured up to 24 hrs by LC-MS/MS analysis; type: ADME, organism-based; details: in vivo
[7] = tested on: A549/TR; assay: Synergistic antiproliferative activity against human A549/Taxol cells assessed as combination index at 10 uM in presence of 0.1uM paclitaxel by Chou-Talalay method; type: functional
[8] = AUC (0 to t) in male Sprague-Dawley rat at 2 mg/kg, iv measured up to 24 hrs by LC-MS/MS analysis; type: ADME, organism-based; details: in vivo
[9] = tested on: A549/TR; assay: Inhibition of cell invasion in human A549/Taxol cells assessed as invasive cells at 2.5 uM incubated for 24 hrs by transwell invasion assay relative to control; type: functional; parameters: scale not given: the % may be the effect or the level left
[10] = tested on: A549/TR; assay: Synergistic antiproliferative activity against human A549/Taxol cells assessed as combination index at 2.5 uM in presence of 0.1 uM paclitaxel by Chou-Talalay method; type: functional
[11] = tested on: A549/TR; assay: Synergistic antiproliferative activity against human A549/Taxol cells assessed as combination index at 10 uM in presence of 0.025 uM paclitaxel by Chou-Talalay method; type: functional
[12] = tested on: A549/TR; assay: Synergistic antiproliferative activity against human A549/Taxol cells assessed as combination index at 5 uM in presence of 0.025 uM paclitaxel by Chou-Talalay method; type: functional
[13] = tested on: A549/TR; assay: Synergistic antiproliferative activity against human A549/Taxol cells assessed as combination index at 20 uM in presence of 0.05 uM paclitaxel by Chou-Talalay method; type: functional
[14] = MRT (0 to infinity) in male Sprague-Dawley rat at 10 mg/kg, po measured up to 24 hrs by LC-MS/MS analysis; type: ADME, organism-based; details: in vivo
[15] = tested on: A549/TR; assay: Synergistic antiproliferative activity against human A549/Taxol cells assessed as combination index at 20 uM in presence of 0.5 uM paclitaxel by Chou-Talalay method; type: functional
[16] = MRT (0 to infinity) in male Sprague-Dawley rat at 2 mg/kg, iv measured up to 24 hrs by LC-MS/MS analysis; type: ADME, organism-based; details: in vivo
[17] = tested on: A549/TR; assay: Synergistic antiproliferative activity against human A549/Taxol cells assessed as combination index at 10 uM in presence of 0.05 uM paclitaxel by Chou-Talalay method; type: functional
[18] = AUC (0 to infinity) in male Sprague-Dawley rat at 2 mg/kg, iv measured up to 24 hrs by LC-MS/MS analysis; type: ADME, organism-based; details: in vivo
[19] = Cmax in male Sprague-Dawley rat at 2 mg/kg, iv measured up to 24 hrs by LC-MS/MS analysis; type: ADME, organism-based; details: in vivo
[20] = Half life in male Sprague-Dawley rat at 10 mg/kg, po measured up to 24 hrs by LC-MS/MS analysis; type: ADME, organism-based; details: in vivo
[21] = tested on: A549/TR; assay: Synergistic antiproliferative activity against human A549/Taxol cells assessed as combination index at 5 uM in presence of 0.1uM paclitaxel by Chou-Talalay method; type: functional

With `O=C(Nc1cc(Cl)cc(Cl)c1)c1nc(-c2cccc(Cl)c2)cs1` the Tmax [1] was 4.8 min, the CI [2] was 0.24 and the CI [3] was 0.63. The CI [4] was 0.63, the half-life [5] was 227 min and the bioavailability [6] was 2.08%. It also gave a CI [7] of 0.47, an AUC(0-t) at 24 h [8] of 2290 ng·h/mL and an Activity [9] of 35.7%. The CI [10] was 0.09, the CI [11] was 0.86 and the CI [12] was 0.71. It also gave a CI [13] of 0.38, an MRT inf [14] of 2.42 h and a CI [15] of 2.15. It also gave an MRT inf [16] of 43.8 min, a CI [17] of 0.2 and an AUC(0-inf) [18] of 2300 ng·h/mL. For the same molecule, the Cmax [19] was 4750 ng/mL, the half-life [20] was 67.2 min and the CI [21] was 0.15.

From ChEMBL document CHEMBL6182948 (J Med Chem, 2025)
